Literature values in paper PMC5589927, “Visualization of ligand-induced dopamine D2S and D2L receptor internalization by TIRF microscopy” (Scientific Reports, 2017).

Tests used:
D2L receptors = conditions: stably transfected CHO cells, ref 46 (Itokawa et al.)
D2S receptors = conditions: stably transfected CHO cells, ref 46 (Itokawa et al.)

NCCc1ccc(O)c(O)c1 [dopamine]
internalization of D2L (D2L receptors; after incubation with agonist): 22%
half-life of decrease D2L (D2L receptors): 33 min
surface expressed D2S receptors unavailable for [3H]sulpiride (internalization) (D2S receptors; after incubation with agonist): about 44%
half-life of decrease D2S (D2S receptors): 19 min
